# Reference: patent publication US20260241035A1, “FUNCTIONAL NUCLEIC ACID MOLECULE AND METHOD” (THE UNIVERSITY COURT OF THE UNIVERSITY OF EDINBURGH, priority 2022, published 2026)
# Legend:
# Type in all cases: cell-based, human
# in vitro = conditions: human; ganciclovir alone, GSC7; read-out: viability (MTT)
# Description: (§1) On the day of cell seeding, cells were detached using above described method. Cells were counted using hemocytometer and seeded into either 96-(1,000 cells per well in 50 μL), 24-(30,000 cells per well in 500 μL) or 6-well (60,000 cells per well in 2 mL) Corning plate and placed into incubator at 37° C./5% CO2. The next day, AAV virus stocks were thawed at room temperature and an appropriate amount of virus stock was added to required amount of culture media to achieve final multiplicity of infection (MOI) of 5×10^5. Culture media containing viral particles was added to cells without replacement of existing media. Cells were returned to 37° C./5% CO2.
# (§2) Lyophilised GCV was diluted in DMSO to achieve 100 mM stock concentration. GCV stocks were aliquoted and were stored at −20° C. for no longer than 1 month. […]
# (§3) To track cell proliferation and morphological changes during treatments, cells were monitored using the Incucyte live-cell imaging system. […]
# (§4) On the day of assay culture media was replaced with 0.3 mg/mL MTT solution (diluted in cell line-appropriate culture media). […] Before reading the plate, each well was visually inspected to make sure that all (formazan) crystals were dissolved. Plate was read with plate reader at 560 nm absorbance.
# GSC7 cells = experiment: in vitro; conditions: ganciclovir alone, no virus
# Description: as §1, §2, §3, §4
# GSC328 cells = experiment: Flow cytometry of mNGreen reporter in GSC328
# Description: Cells were seeded at the required density. The following day the transfection was carried out. For this the Plus reagent and Lipofectamine LTX (Life Technologies, 15338030) were each diluted in half the volume of Opti-MEM I Reduced-Serum Medium (further referred to as Optimem) (Life Technologies, 31985062). Following this step, the Plus reagent/Optimem premix was added to all DNA samples followed by the Lipofectamine LTX/Optimem premix. The transfection mix was incubated for 5 min at room temperature and then carefully dropped on the cells. Generally, no media change was carried out. Cells were analysed two days following transfection.
# For flow cytometry, cells were detached, pelleted and resuspended in an appropriate volume of flow cytometry buffer (1% BSA in PBS, v/v). Cells were stained with Draq7 (Abcam, ab109202, f.c. 0.1 μM) as a live/dead stain and analysed using the BD LSRFortessa cell analyser (4 lasers, BD Bioscience). Analysis of flow cytometry data was carried out in the FlowJo Analysis software (FlowJo, version 10.6.2).
Molecule,viability at 200 μM (in vitro) [%],cell confluence (GSC7 cells),mean fluorescence intensity (MFI) compared with CMV (GSC328 cells)
Nc1nc(O)c2ncn(COC(CO)CO)c2n1 [ganciclovir],89,No significant negative effect on cell confluence,–
"SSE-6: synthetic super-enhancer ID3548_ID3146_ID4310_ID4428, SEQ ID NO: 69 (nucleic acid) DNA: TCCAAACACTCCCCTGCAACAGATGTACACACAGAGCCCATTGTTTTCTCTAGAAATGTAAACTGCACGTCACAGTTACTCCATACACACCACAAACAGACTCCCTTTGTTCTCAGGATATGTGTTGACACAAGAATATGTCATCCTCTCAGCTCCAGACTGAAAGAGATGGGTGTGTGGGAGTGGGGGAAGCTGAGCTCCAGGCAGACAGCACAGAGCCGCCTTGTCCAACCCAGCCAGGTGCCATGGCAACCAACAAAGGCCCCATTGTCCCGTGTCTGCTGGGCCTTCCTGAGGCTCTGGGGTCAGAGTCCCGGTTTTGTCCTGCCTTTGAGAACACTGGAAGGGCACTGAAGGCTGACCAGCATGCACCTCACCCCACCTCCTCTCTGTCTCATCCTCAGCCATCTAAGCGGGAGACTCATCAGGCTTAAATTCTCATTCTTATCCAAGATTCTTCTGCTTCAAATGAGTCTAAATGGAGATCCTCCCATAAAGGGAGTTCTGTTTGGGCTTCCCTTGGAAGTCCATTGAAAGCGTTTCACATTTCAATGCTTCTTTACATTCTCCTCTAGAATGAATCTGGAAGGGCCATTTCATTCCAGCCCTATCAGATTTACTACTTCCTCCTGT",–,–,clearly less intense than CMV
